pEC50, pIC50: −log10 of the molar value.
Assays:
C57BLKS/J-m-db mice = assay: Determination of blood glucose levels in db/db mice; assay type: in vivo; settings: percent decrease in plasma glucose from baseline one hour after subcutaneous injection of 1 μg
cyclase (membranes) = assay: Cyclase activation study (cAMP SPA immunoassay); assay type: biochemical; settings: cAMP in supernatant after 20 minutes incubation at 37° C. of membranes and peptides
Method: GLP-1[7–36]NH2 (GLP-1) was purchased from Bachem (Torrance, Calif.). All other peptides were prepared using synthesis methods such as those described therein. All chemicals were of the highest commercial grade. The cAMP SPA immunoassay was purchased from Amersham. The radioligands were purchased from New England Nuclear (Boston, Mass.). […] Cells were grown at 37° C. and 5% CO2/95% humidified air and medium was replaced every 2 to 3 days. Cells were grown to confluence then harvested and homogenized using on a Polytron homogenizer. Cell homogenates were stored frozen at −70° C. until used. Assay buffer contained 10 μM GTP, 0.75 mM ATP, 2.5 mM MgCl21 0.5 mM phosphocreatine, 12.5 U/ml creatine kinase, 0.4 mg/ml aprotinin, 1 μM IBMX in 50 mM HEPES, pH 7.4. Membranes and peptides were combined in […] of assay buffer in 96 well filter-bottom plates (Millipore Corp., Bedford, Mass.). […] Supernatant cAMP contents were quantitated by SPA immunoassay. […] The biological activity of a particular sample was expressed as an EC50 value, calculated as described above.

[1] = biological target: GLP-1 receptor (on RINm5f membranes) (UniProt P32301)
Sequence of GLP-1 receptor (on RINm5f membranes) (P32301 22-463 limits assumed): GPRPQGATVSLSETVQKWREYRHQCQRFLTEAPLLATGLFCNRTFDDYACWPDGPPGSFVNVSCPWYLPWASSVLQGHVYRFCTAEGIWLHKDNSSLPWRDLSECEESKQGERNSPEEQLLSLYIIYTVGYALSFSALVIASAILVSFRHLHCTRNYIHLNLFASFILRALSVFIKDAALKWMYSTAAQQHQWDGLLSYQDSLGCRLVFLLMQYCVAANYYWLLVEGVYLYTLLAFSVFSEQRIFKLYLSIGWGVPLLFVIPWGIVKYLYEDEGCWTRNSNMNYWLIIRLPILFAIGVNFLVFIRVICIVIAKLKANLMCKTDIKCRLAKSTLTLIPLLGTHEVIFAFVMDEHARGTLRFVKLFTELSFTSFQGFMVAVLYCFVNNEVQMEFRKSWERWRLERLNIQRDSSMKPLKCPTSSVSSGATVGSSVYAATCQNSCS

| Compound | pEC50 (cyclase (membranes)) | % drop in glucose (C57BLKS/J-m-db mice) [%] | pIC50 [1] |
| --- | --- | --- | --- |
| Exendin-4 [SEQ. ID. NO. 2] (peptide) | – | – | 9.15 |
| CC[C@H](C)[C@H](NC(=O)[C@H](Cc1ccccc1)NC(=O)[C@H](CC(C)C)NC(=O)[C@H](CCCNC(=N)N)NC(=O)[C@@H](NC(=O)[C@H](C)NC(=O)[C@H](CCC(=O)O)NC(=O)[C@H](CCC(=O)O)NC(=O)[C@H](CCC(=O)O)NC(=O)[C@H](CC(C)C)NC(=O)[C@H](CCC(N)=O)NC(=O)[C@H](CCCCN)NC(=O)[C@H](CO)NC(=O)[C@H](CC(C)C)NC(=O)[C@H](CC(=O)O)NC(=O)[C@H](CO)NC(=O)[C@@H](NC(=O)[C@H](Cc1ccccc1)NC(=O)[C@@H](NC(=O)[C@H](C)NC(=O)[C@H](CCC(=O)O)NC(=O)CNC(=O)[C@@H](N)Cc1c[nH]cn1)[C@@H](C)O)[C@@H](C)O)C(C)C)C(=O)N[C@@H](CCC(=O)O)C(=O)N[C@@H](Cc1ccccc1)C(=O)N[C@@H](CC(C)C)C(=O)N[C@@H](CCCCN)C(=O)N[C@@H](CC(N)=O)C(N)=O [Compound 3] | < 5.00 | 32 | – |
| CC[C@H](C)[C@H](NC(=O)[C@H](Cc1ccccc1)NC(=O)[C@H](CC(C)C)NC(=O)[C@H](CCCNC(=N)N)NC(=O)[C@@H](NC(=O)[C@H](C)NC(=O)[C@H](CCC(=O)O)NC(=O)[C@H](CCC(=O)O)NC(=O)[C@H](CCC(=O)O)NC(=O)[C@H](CC(C)C)NC(=O)[C@H](CCC(N)=O)NC(=O)[C@H](CCCCN)NC(=O)[C@H](CO)NC(=O)[C@H](CC(C)C)NC(=O)[C@H](C)NC(=O)[C@H](CO)NC(=O)[C@@H](NC(=O)[C@H](Cc1ccccc1)NC(=O)[C@@H](NC(=O)CNC(=O)[C@H](CCC(=O)O)NC(=O)CNC(=O)[C@@H](N)Cc1c[nH]cn1)[C@@H](C)O)[C@@H](C)O)C(C)C)C(=O)N[C@@H](CCC(=O)O)C(=O)N[C@@H](Cc1ccccc1)C(=O)N[C@@H](CC(C)C)C(=O)N[C@@H](CCCCN)C(=O)N[C@@H](CC(N)=O)C(N)=O [Compound 4] | < 5.00 | 42 | – |

Now from value to compound, other results behind:

| pEC50 (cyclase (membranes)) | Compound | % drop in glucose (C57BLKS/J-m-db mice) [%] | pIC50 [1] |
| --- | --- | --- | --- |
| < 5.00 | CC[C@H](C)[C@H](NC(=O)[C@H](Cc1ccccc1)NC(=O)[C@H](CC(C)C)NC(=O)[C@H](CCCNC(=N)N)NC(=O)[C@@H](NC(=O)[C@H](C)NC(=O)[C@H](CCC(=O)O)NC(=O)[C@H](CCC(=O)O)NC(=O)[C@H](CCC(=O)O)NC(=O)[C@H](CC(C)C)NC(=O)[C@H](CCC(N)=O)NC(=O)[C@H](CCCCN)NC(=O)[C@H](CO)NC(=O)[C@H](CC(C)C)NC(=O)[C@H](CC(=O)O)NC(=O)[C@H](CO)NC(=O)[C@@H](NC(=O)[C@H](Cc1ccccc1)NC(=O)[C@@H](NC(=O)CNC(=O)[C@H](C)NC(=O)CNC(=O)[C@@H](N)Cc1c[nH]cn1)[C@@H](C)O)[C@@H](C)O)C(C)C)C(=O)N[C@@H](CCC(=O)O)C(=O)N[C@@H](Cc1ccccc1)C(=O)N[C@@H](CC(C)C)C(=O)N[C@@H](CCCCN)C(=O)N[C@@H](CC(N)=O)C(N)=O [Compound 2] | 41 | – |
| < 6.00 | CC[C@H](C)[C@H](NC(=O)[C@H](Cc1ccccc1)NC(=O)[C@H](CC(C)C)NC(=O)[C@H](CCCNC(=N)N)NC(=O)[C@@H](NC(=O)[C@H](C)NC(=O)[C@H](CCC(=O)O)NC(=O)[C@H](CCC(=O)O)NC(=O)[C@H](CCC(=O)O)NC(=O)[C@H](CC(C)C)NC(=O)[C@H](CCC(N)=O)NC(=O)[C@H](CCCCN)NC(=O)[C@H](CO)NC(=O)[C@H](CC(C)C)NC(=O)[C@H](CC(=O)O)NC(=O)[C@H](CO)NC(=O)[C@@H](NC(=O)[C@H](Cc1ccccc1)NC(=O)[C@@H](NC(=O)CNC(=O)[C@H](CCC(=O)O)NC(=O)CNC(=O)[C@H](C)N)[C@@H](C)O)[C@@H](C)O)C(C)C)C(=O)N[C@@H](CCC(=O)O)C(=O)N[C@@H](Cc1ccccc1)C(=O)N[C@@H](CC(C)C)C(=O)N[C@@H](CCCCN)C(=O)N[C@@H](CC(N)=O)C(N)=O [Compound 1] | 40 | – |
